Laboratory results as given in patent US20250288583A1, “Treatment of Mucus Hypersecretion” (priority 2024, published 2025).
pEC50: −log10 of the molar value. “Also recorded” adds a separate entry of the source.

Tests used:
TRPA1 = target: T1, TRPA1 (Homo sapiens, UniProt O75762); experiment: TRPA1 specificity assay in transfected cells; format: cell-based; conditions: FIG. 5; mustard oil positive control
T1 construct: expressed in transfected cells

philtrum skin = experiment: Cooling duration bioassay on philtrum skin; format: in vivo, human
In short: (§1)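 Human sensory test: p-menthanecarboxamide analogs applied to keratinized philtrum skin or, by wipe, to closed eyelids (non-keratinized ocular margins). Coolness rated on a 0 to 3 scale and the duration of cooling recorded.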

hTRPM8 channel = target: T2, hTRPM8 channel (Homo sapiens, UniProt Q7Z2W7); experiment: TRPM8 receptor assay, calcium entry (Fluo-8, FLIPR) in transfected CHO cells; format: cell-based; conditions: for Potency Relative to L-menthol: ratio of TRPM8 EC50 values, menthol = 1.0
T2 construct: host or cells: CHO cells

ocular margins = experiment: Cooling duration bioassay on eyelids/ocular margins; format: in vivo, human; conditions: for Duration of effects on the ocular margins, on average: test concentration 1 mg/mL
In short: as §1

nasal cavity = experiment: Nebulizer screening of TRPM8 agonists for sensations in the nasal cavity; format: in vivo, human; conditions: NasoNeb nebulizer, 3 to 5 sec per nostril
Experimental: Formulations for nebulization with NasoNeb® used a standard recipe of (Table 8): 1% of the active ingredient (1 to 10 mg/mL), 2% Tween 80 (Polysorbate 80), 1 to 5% ethanol, and made up to 100% with water. The mixture is centrifuged in a FlackTek, Inc., Speedmixer for at least 10 min at 3000 rpm. The Speedmixer spins the sample in 3 dimensions. The result is a white homogeneous liquid suspension with some of the solids now dissolved. For dosing, ˜2 to 3 mL is loaded into the canister of the nebulizer. The nebulizer nozzle tip is placed in the nostril and activated by pressing a button for 3 to 5 sec using a clock timer. […] For D-Ala-OiPr a 5-sec activation will deliver 2*0.73 mL*2 mg/ml, or a total dose of 3 mg per nose. The nasal cavity is relatively tolerant to exogenous agents with irritant properties, as many rinses are used for rhinitis and sinusitis. For some p-menthanecarboxamide analogs, a 2% (20 mg/mL) solution is possible and contemplated. An ideal agent reproduces a comfortable cooling or sensations of negative heat flux in the nasal cavity. […] Heat flux refers to the rate of heat transfer per unit area. The sinonasal cavity mucosa differs from philtrum skin and ocular margins in histology, so the choice of the right molecule must be made by experiment. The TRPM8 agonists were chosen for screening using a nebulizer for delivery. The NasoNeb system is powerful and effective for the OMC (FIG. 3). The delivery time per nostril in three to five seconds. […] These parameters were estimated in the initial trials: • Onset and offset of cooling sensations in the nasal cavity. • The intensity and quality of the cooling sensations in the nasal cavity. • Presence of effects such as sneezing or cough after dosing. • Degree of nasal stuffiness on a scale of 0 to 5. • Degree of rhinorrhea and phlegm in nasal secretions. • Questions regarding comfort and sleep at night.

T2 sequence (Q7Z2W7 whole entry): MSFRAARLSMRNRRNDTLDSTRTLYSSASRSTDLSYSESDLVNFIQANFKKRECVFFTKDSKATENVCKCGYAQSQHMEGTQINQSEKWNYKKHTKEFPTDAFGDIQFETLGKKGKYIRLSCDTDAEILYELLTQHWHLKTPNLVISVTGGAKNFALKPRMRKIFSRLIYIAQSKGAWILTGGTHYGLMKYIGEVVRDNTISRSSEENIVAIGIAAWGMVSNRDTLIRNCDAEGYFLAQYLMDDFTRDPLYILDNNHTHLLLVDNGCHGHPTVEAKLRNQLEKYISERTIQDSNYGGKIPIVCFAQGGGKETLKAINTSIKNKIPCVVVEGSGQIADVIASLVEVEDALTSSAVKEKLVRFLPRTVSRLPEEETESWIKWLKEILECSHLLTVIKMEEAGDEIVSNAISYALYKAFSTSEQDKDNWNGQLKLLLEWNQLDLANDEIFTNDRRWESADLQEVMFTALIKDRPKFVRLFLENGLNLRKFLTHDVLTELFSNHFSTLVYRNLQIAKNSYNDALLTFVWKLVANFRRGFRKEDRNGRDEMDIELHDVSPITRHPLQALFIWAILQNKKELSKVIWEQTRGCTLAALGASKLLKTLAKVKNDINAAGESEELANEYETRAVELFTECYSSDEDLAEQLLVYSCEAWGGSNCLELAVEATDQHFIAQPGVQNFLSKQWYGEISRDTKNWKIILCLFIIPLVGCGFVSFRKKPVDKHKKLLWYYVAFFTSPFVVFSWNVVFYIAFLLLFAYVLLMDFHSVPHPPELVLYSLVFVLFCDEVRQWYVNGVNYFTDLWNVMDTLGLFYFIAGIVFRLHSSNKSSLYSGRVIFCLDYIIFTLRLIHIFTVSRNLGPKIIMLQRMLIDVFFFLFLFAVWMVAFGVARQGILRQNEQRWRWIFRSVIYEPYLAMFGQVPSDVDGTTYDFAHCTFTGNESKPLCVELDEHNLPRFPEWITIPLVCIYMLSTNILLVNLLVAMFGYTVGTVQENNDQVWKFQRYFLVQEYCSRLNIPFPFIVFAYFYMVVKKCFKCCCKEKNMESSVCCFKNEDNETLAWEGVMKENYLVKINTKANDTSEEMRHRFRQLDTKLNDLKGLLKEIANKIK
T1 sequence (O75762 whole entry, species assumed): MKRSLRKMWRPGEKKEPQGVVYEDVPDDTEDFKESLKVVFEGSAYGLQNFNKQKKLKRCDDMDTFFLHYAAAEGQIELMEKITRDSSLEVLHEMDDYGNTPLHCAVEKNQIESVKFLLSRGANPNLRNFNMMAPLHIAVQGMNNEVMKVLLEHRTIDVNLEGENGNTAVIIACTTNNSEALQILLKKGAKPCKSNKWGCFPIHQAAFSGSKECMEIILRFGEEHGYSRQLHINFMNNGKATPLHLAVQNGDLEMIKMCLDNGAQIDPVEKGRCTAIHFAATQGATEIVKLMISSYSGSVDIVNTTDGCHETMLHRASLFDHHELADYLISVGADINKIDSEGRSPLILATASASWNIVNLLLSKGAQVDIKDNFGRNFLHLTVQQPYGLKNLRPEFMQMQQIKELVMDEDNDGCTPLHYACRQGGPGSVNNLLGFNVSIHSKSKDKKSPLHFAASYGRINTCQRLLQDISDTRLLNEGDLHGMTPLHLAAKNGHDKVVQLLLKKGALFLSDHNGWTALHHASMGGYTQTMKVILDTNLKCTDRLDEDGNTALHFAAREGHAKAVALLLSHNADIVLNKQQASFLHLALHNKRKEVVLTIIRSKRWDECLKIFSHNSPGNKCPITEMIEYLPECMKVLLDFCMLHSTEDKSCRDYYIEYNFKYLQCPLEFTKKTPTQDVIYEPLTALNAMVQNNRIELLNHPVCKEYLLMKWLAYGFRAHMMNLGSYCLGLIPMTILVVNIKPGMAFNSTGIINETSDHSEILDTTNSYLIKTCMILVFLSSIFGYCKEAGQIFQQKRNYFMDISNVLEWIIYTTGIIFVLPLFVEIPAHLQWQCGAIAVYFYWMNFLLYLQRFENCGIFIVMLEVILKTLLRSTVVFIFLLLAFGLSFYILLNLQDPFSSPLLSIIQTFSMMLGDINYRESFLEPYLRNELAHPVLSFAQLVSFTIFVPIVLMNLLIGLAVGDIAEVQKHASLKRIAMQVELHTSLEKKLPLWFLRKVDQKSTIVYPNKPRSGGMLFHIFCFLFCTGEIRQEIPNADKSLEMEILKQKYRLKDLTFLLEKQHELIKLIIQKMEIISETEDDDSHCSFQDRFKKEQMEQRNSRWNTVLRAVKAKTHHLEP

Compound	Response of cells transfected with TRPA1 (TRPA1)	Philtrum Skin (philtrum skin; Table 7, Gly esters) [min]	Activity on TRPM8 transfected cells (hTRPM8 channel; FIG. 5)	Potency Relative to L-menthol (hTRPM8 channel)	Ocular Surface (ocular margins; Table 7, Gly esters) [min]	Duration of effects on the ocular margins, on average (ocular margins) [h]	Duration on the ocular surface (ocular margins; test concentration increased from 1 mg/mL to 1.5 mg/mL)	Sensory effects after delivery into the nasal cavity (nasal cavity)	Philtrum Skin (philtrum skin; Table 6, cooling duration, keratinized skin) [min]	pEC50 (hTRPM8 channel; CHO cells transfected with hTRPM8, Fluo-8 calcium kit, FLIPR)	Eyelids/Ocular Surface (ocular margins; Table 6, cooling duration, non-keratinized) [min]
CC(C)OC(=O)CNC(=O)[C@@H]1C[C@H](C)CC[C@H]1C(C)C [GlyOiPr, [((1R,2S,5R)-2-isopropyl-5-methyl-cyclohexanecarbonyl)-amino]-acetic acid isopropyl ester]	do not respond; also recorded: activates TRPM8 but not TRPV1 or TRPA1	27	active	7.6	300	~5	about 6.5 hours	The sense of coolness is pure, without any harsh tones.			
CC(C)OC(=O)[C@@H](C)NC(=O)[C@@H]1C[C@H](C)CC[C@H]1C(C)C [D-Ala-OiPr, (R)-2-[((1R,2S,5R)-2-isopropyl-5-methyl-cyclohexanecarbonyl)amino]-propionic acid i-propyl ester]	inactive			14.6		~5		Longer-acting than GlyOiPr. Excellent agent. It may have a slightly bitter taste.	34	6.59	360
